We go through 1 molecule from patent US11752156B2, “Compositions and methods for treating hyperproliferative skin disorders” (Athenex HK Innovative Limited, priority 2018, dated 2023).

Experiment [1] concerns A431 cells (epidermoid cells obtained from a human squamous cell carcinoma). The experiment in a line: inhibition of cell growth by tazarotene, A431. Format: cell-based. The text has this: FIG. 8: Inhibition of A431 cell growth by tazarotenee, as determined by staining.
(§1) Examples of suitable retinoids include retinol, retinal, retinoic acid isotretinoin, alitreninoin, etretinate, acitretin, adapalene, bexarotene, and/or tazarotene. FIGS. 7 and 8 show the effects of tazarotene on growth of cells in culture, including CCD-1106 KERTr keratinocytes (FIG. 7) and A431 cells (epidermoid cells obtained from a human squamous cell carcinoma, FIG. 8).

For experiment [2], the system named is CCD-1106 KERTr keratinocytes. Briefly: inhibition of cell growth by tazarotene, keratinocytes. It counts as cell-based, human.
Source text: FIG. 7: Inhibition of CCD1106 KERTr keratinocyte growth by tazarotene, as determined by staining.
as §1

Experiment [3] deals with cell proliferation/growth. Briefly: combined treatment with KX01 and tazarotene, inhibition of cell proliferation/growth. It counts as cell-based.
Source text: as §1

pIC50: −log10 of the molar value.

Broadly, the pIC50 is the IC50 on a negative log10 scale, so that one unit is a factor of ten. As usually defined, the IC50 is the midpoint of a concentration-inhibition curve. Turning to `CCOC(=O)c1ccc(C#Cc2ccc3c(c2)C(C)(C)CCS3)nc1` [Tazarotene, tazarotene], the Maximum inhibition is on record as 1.09 in experiment [1] (A431, model estimate) and 0.903 in experiment [2] (model estimate). The H was determined as 1.66 in experiment [1] (A431, steepness of slope); 2.11 in experiment [2] (steepness of slope); 1.0 in experiment [3]. Moreover, the pIC50 was 4.44 in experiment [1] (Homo sapiens, A-431, A431, model estimate) and 4.91 in experiment [2] (Homo sapiens, CCD-1106, model estimate). Further, the Imax in experiment [3] is 1.1. For the same molecule, the IC50 in experiment [3] (column head says nM) was found to be 13300 nM.
